The record followed here is patent publication US20230287003A1, “BCL6 INHIBITORS” (Cancer Research Technology Limited, priority 2018, published 2023).

A word on the IC50: it is the concentration at which inhibition is half-maximal.

The test addresses human BCL6 BTB domain (Trx-6×His-BCL6) / BCOR-AF633 peptide (Homo sapiens (Human), UniProt P41182). The experiment in a line: HTRF assay. The test is classed as binding. (In TR-FRET formats the signal depends on donor and acceptor labels being close together.)
The mark [1] stands for this setting: 1 nM Trx-6×His-BCL6, 300 nM BCOR-AF633 peptide, 2 hours incubation.
Where [2] appears, read: HTRF avg pIC50 (1 nM), 1 nM Trx-6×His-BCL6, 300 nM BCOR-AF633 peptide, 2 hours incubation.

Like-named read-outs stand apart in the source and are kept apart here.

Description: The % inhibition at each concentration was calculated by normalising FRET ratio to the appropriate high (DMSO with all reagents) and low (DMSO without BCL6) controls.

For the molecule `CC1CC(C)(C)Oc2c(c3cc(Nc4ccnc(Cl)c4C#N)ccc3n(C)c2=O)N1` (centres unmarked) [2-chloro-4-((2,4,4,7-tetramethyl-6-oxo-1,2,3,4,6,7-hexahydro-[1,4]oxazepino[2,3-c]quinolin-10-yl)amino)nicotinonitrile], the half-maximal inhibitory concentration (IC50) (read-out: IC50 in the HTRF assay) was above 2500 nM.

As for `C[C@H]1C[C@@H](O)CN(c2ncc(Cl)c(Nc3ccc4c(c3)c3c(c(=O)n4C)OCC(F)(F)[C@H](C4CC4)N3)n2)C1` (single isomer, unassigned) [Example 13d, (S)-10-((5-chloro-2-((3R,5S)-3-hydroxy-5-methylpiperidin-1-yl)pyrimidin-4-yl)amino)-2-cyclopropyl-3,3-difluoro-7-methyl-1,2,3,4-tetrahydro-[1,4]oxazepino[2,3-c]quinolin-6(7H)-one or (S)-10-((5-chloro-2-((3S,5R)-3-hydroxy-5-methylpiperidin-1-yl)pyrimidin-4-yl)amino)-2-cyclopropyl-3,3-difluoro-7-methyl-1,2,3,4-tetrahydro-[1,4]oxazepino[2,3-c]quinolin-6(7H)-one], under setting [1], the “HTRF avg pIC50 (1 nM)” value worked out at 8.70.

Regarding `COCC1(C)CCOc2c(c3cc(Nc4nc(-n5ccc(C(F)(F)F)n5)ncc4Cl)ccc3n(C)c2=O)N1` (centres unmarked) [Example 5b, 10-((5-chloro-2-(3-(trifluoromethyl)-1H-pyrazol-1-yl)pyrimidin-4-yl)amino)-2-(methoxymethyl)-2,7-dimethyl-1,2,3,4-tetrahydro-[1,4]oxazepino[2,3-c]quinolin-6(7H)-one], under setting [1], the “HTRF avg pIC50 (1 nM)” value amounted to 6.09.

On to `CC1CCc2c(c3cc(Nc4ccnc(Cl)c4C#N)ccc3n(C)c2=O)N1` (centres unmarked) [Example 10a, 2-chloro-4-((2,6-dimethyl-5-oxo-1,2,3,4,5,6-hexahydrobenzo[h][1,6]-naphthyridin-9-yl)amino)nicotinonitrile], for which, under setting [1], the “HTRF avg pIC50 (1 nM)” value is listed as 5.84.

On to `Cn1c(=O)c2c(c3cc(Nc4ccnc(Cl)c4C#N)ccc31)NC(C1CCC1)CO2` (centres unmarked) [Example 1n, 2-chloro-4-((2-cyclobutyl-6-methyl-5-oxo-2,3,5,6-tetrahydro-1H-[1,4]oxazino[2,3-c]quinolin-9-yl)amino)nicotinonitrile], for which the “HTRF avg pIC50 (1 nM)” value under setting [1] is given as 5.70.

For “(S)-10-((5-chloro-2-((R)-4,4-difluoro-3- (hydroxymethyl)piperidin-1-yl)pyrimidin-4-yl)amino)-2-cyclopropyl- 3,3-difluoro-7-methyl-1,2,3,4-tetrahydro-[1,4]oxazepino[2,3-c]quinolin- 6(7H)-one or (S)-10-((5-chloro-2-((S)-4,4-difluoro-3- (hydroxymethyl)piperidin-1-yl)pyrimidin-4-yl)amino)-2-cyclopropyl- 3,3-difluoro-7-methyl-1,2,3,4-tetrahydro-[1,4]oxazepino[2,3-c]quinolin- 6(7H)-one [Example 12p]”, under setting [1], the “HTRF avg pIC50 (1 nM)” value was 8.34.

Consider `CN1CCN(c2ncc(F)c(Nc3ccc4c(c3)c3c(c(=O)n4C)OCC(F)(F)[C@H](C4CC4)N3)n2)CC1=O` [Example 13i, (S)-2-cyclopropyl-3,3-difluoro-10-((5-fluoro-2-(4-methyl-3-oxopiperazin-1-yl)pyrimidin-4-yl)amino)-7-methyl-1,2,3,4-tetrahydro-[1,4]oxazepino[2,3-c]quinolin-6(7H)-one], for which the “HTRF avg pIC50 (1 nM)” value under setting [1] came to 8.45.

In the case of `Cn1c(=O)c2c(c3cc(Nc4nc(-n5ccc(C(F)(F)F)n5)ncc4Cl)ccc31)NC1(CCOC1)CCO2` (centres unmarked) [Example 5j, 10′-((5-chloro-2-(3-(trifluoromethyl)-1H-pyrazol-1-yl)pyrimidin-4-yl)amino)-7′-methyl-3′,4,4′,5-tetrahydro-1′H,2H-spiro[furan-3,2′-[1,4]oxazepino[2,3-c]quinolin]-6′(7′H)-one], the “HTRF avg pIC50 (1 nM)” value under setting [1] is given as 5.79.

Under setting [2], `Cn1c(=O)c2c(c3cc(Nc4ccnc(Cl)c4C#N)ccc31)N[C@@H](C1CC1)COC2=O` [Example 6b, (S)-2-chloro-4-((2-cyclopropyl-7-methyl-5,6-dioxo-1,2,3,5,6,7-hexahydro-[1,4]oxazepino[6,5-c]quinolin-10-yl)amino)nicotinonitrile] showed an IC50 of 166 nM.

With `Cn1c(=O)c2c(c3cc(Nc4ccnc(Cl)c4C#N)ccc31)NC(C1CC1)COC2=O` (centres unmarked) [Example 6c, 2-chloro-4-((2-cyclopropyl-7-methyl-5,6-dioxo-1,2,3,5,6,7-hexahydro-[1,4]oxazepino[6,5-c]quinolin-10-yl)amino)nicotinonitrile], the “HTRF avg pIC50 (1 nM)” value under setting [1] is given as 6.71.

Take `C[C@@H]1C[C@H](C)CN(c2ncc(Cl)c(Nc3ccc4c(c3)c3c(c(=O)n4C)C(=O)OC[C@H](C4CC4)N3)n2)C1` [Example 8l, (S)-10-((5-chloro-2-((3R,5S)-3,5-dimethylpiperidin-1-yl)pyrimidin-4-yl)amino)-2-cyclopropyl-7-methyl-2,3-dihydro-[1,4]oxazepino[6,5-c]quinoline-5,6(1H,7H)-dione]: the “HTRF avg pIC50 (1 nM)” value under setting [1] came out at 6.36.

Turning to `C[C@H]1COC(=O)c2c(c3cc(Nc4nc(N5CCCC5=O)ncc4Cl)ccc3n(C)c2=O)N1` [Example 8i, (S)-10-((5-chloro-2-(2-oxopyrrolidin-1-yl)pyrimidin-4-yl)amino)-2,7-dimethyl-2,3-dihydro-[1,4]oxazepino[6,5-c]quinoline-5,6(1H,7H)-dione], the “HTRF avg pIC50 (1 nM)” value under setting [1] is 6.23.

As for “(R)-10-((5-chloro-2-((R)-4,4-difluoro-3- hydroxypiperidin-1-yl)pyrimidin-4-yl)amino)-2-cyclopropyl-7- methyl-1,2,3,4-tetrahydro-[1,4]oxazepino[2,3-c]quinolin-6(7H)- one or (R)-10-((5-chloro-2((S)-4,4-difluoro-3-hydroxypiperidin-1- yl)pyrimidin-4-yl)amino)-2-cyclopropyl-7-methyl-1,2,3,4- tetrahydro-[1,4]oxazepino[2,3-c]quinolin-6(7H)-one [Example 12y]”, under setting [1], the “HTRF avg pIC50 (1 nM)” value is listed as 7.73.

Consider “(S)-10-((5-chloro-2-((3S,5R)-3-hydroxy-5- methylpiperidin-1-yl)pyrimidin-4-yl)amino)-2,7-dimethyl-1,2,3,4- tetrahydro-[1,4]oxazepino[2,3-c]quinolin-6(7H)-one or (S)-10-((5- chloro-2-((3R,5S)-3-hydroxy-5-methylpiperidin-1-yl)pyrimidin-4- yl)amino)-2,7-dimethyl-1,2,3,4-tetrahydro- [1,4]oxazepino[2,3-c]quinolin-6(7H)-one [Example 12l]”, for which the “HTRF avg pIC50 (1 nM)” value under setting [1] is on record as 6.99.

On to `Cn1c(=O)c2c(c3cc(Nc4nc(N5CCC(F)(F)CC5)ncc4Cl)ccc31)N[C@@H](C1CC1)C(F)(F)CO2` [Example 12n, (S)-10-((5-chloro-2-(4,4-difluoropiperidin-1-yl)pyrimidin-4-yl)amino)-2-cyclopropyl-3,3-difluoro-7-methyl-1,2,3,4-tetrahydro-[1,4]oxazepino[2,3-c]quinolin-6(7H)-one], for which the “HTRF avg pIC50 (1 nM)” value under setting [1] turned out to be 7.94.

With `C[C@@H]1CN(c2ncc(Cl)c(Nc3ccc4c(c3)c3c(c(=O)n4CCO)OCC[C@H](C4CC4)N3)n2)C[C@H](C)C1(F)F` [Example 16a, (R)-10-((5-chloro-2-((3S,5R)-4,4-difluoro-3,5-dimethylpiperidin-1-yl)pyrimidin-4-yl)amino)-2-cyclopropyl-7-(2-hydroxyethyl)-1,2,3,4-tetrahydro-[1,4]oxazepino[2,3-c]quinolin-6(7H)-one], the “HTRF avg pIC50 (1 nM)” value under setting [1] was 7.17.

Turning to `CC1COc2c(c3cc(Nc4ccnc(Cl)c4C#N)ccc3n(C)c2=O)N1` (centres unmarked) [Example 1k, 2-chloro-4-((2,6-dimethyl-5-oxo-2,3,5,6-tetrahydro-1H-[1,4]oxazino[2,3-c]quinolin-9-yl)amino)nicotinonitrile], the “HTRF avg pIC50 (1 nM)” value under setting [1] worked out at 5.91.

`Cn1c(=O)c2c(c3cc(Nc4ccnc(Cl)c4C#N)ccc31)NC1(CCOC1)CCO2` (centres unmarked) [Example 1o, 2-chloro-4-((7′-methyl-6′-oxo-3′,4,4′,5,6′,7′-hexahydro-1′H,2H-spiro[furan-3,2′-[1,4]oxazepino[2,3-c]quinolin]-10′-yl)amino)nicotinonitrile]: under setting [1], the “HTRF avg pIC50 (1 nM)” value was found to be 6.14.

With `Cn1c(=O)c2c(c3cc(Nc4cc(C(=O)O)nc(Cl)c4C#N)ccc31)N[C@@H](C1CC1)CCO2` [Example 2b, (R)-6-chloro-5-cyano-4-((2-cyclopropyl-7-methyl-6-oxo-1,2,3,4,6,7-hexahydro-[1,4]oxazepino[2,3-c]quinolin-10-yl)amino)picolinic acid], the half-inhibitory concentration (IC50) under setting [2] is 8.91 nM.

For the molecule `C[C@H]1COC(=O)c2c(c3cc(Nc4nc(N5CCC6(CCCN(C)C6=O)CC5)ncc4Cl)ccc3n(C)c2=O)N1` [Example 8e, (S)-10-((5-chloro-2-(2-methyl-1-oxo-2,9-diazaspiro[5.5]undecan-9-yl)pyrimidin-4-yl)amino)-2,7-dimethyl-2,3-dihydro-[1,4]oxazepino[6,5-c]quinoline-5,6(1H,7H)-dione], the “HTRF avg pIC50 (1 nM)” value under setting [1] is on record as 6.69.

`C[C@H]1COC(=O)c2c(c3cc(Nc4nc(N5CCC(C(=O)N(C)C)CC5)ncc4Cl)ccc3n(C)c2=O)N1` [Example 8d, (S)-1-(5-chloro-4-((2,7-dimethyl-5,6-dioxo-1,2,3,5,6,7-hexahydro-[1,4]oxazepino[6,5-c]quinolin-10-yl)amino)pyrimidin-2-yl)-N,N-dimethylpiperidine-4-carboxamide]: the “HTRF avg pIC50 (1 nM)” value under setting [1] is reported as 6.78.

For `Cn1c(=O)c2c(c3cc(Nc4nc(N5CCN(CCC#N)CC5)ncc4Cl)ccc31)N[C@@H](C1CC1)C(F)(F)CO2` [Example 13f, (S)-3-(4-(5-chloro-4-((2-cyclopropyl-3,3-difluoro-7-methyl-6-oxo-1,2,3,4,6,7-hexahydro-[1,4]oxazepino[2,3-c]quinolin-10-yl)amino)pyrimidin-2-yl)piperazin-1-yl)propanenitrile], the “HTRF avg pIC50 (1 nM)” value under setting [1] came out at 8.66.

For `C[C@H]1CCOc2c(c3cc(Nc4cc(C(=O)O)nc(Cl)c4C#N)ccc3n(C)c2=O)N1` [Example 2a, (S)-6-chloro-5-cyano-4-((2,7-dimethyl-6-oxo-1,2,3,4,6,7-hexahydro-[1,4]ox-azepino[2,3-c]quinolin-10-yl)amino)picolinic acid], the “HTRF avg pIC50 (1 nM)” value under setting [1] came to 7.26.
